# According to US10183047B2, “Chromium-containing compositions in combination with Phyllanthus emblica and shilajit having synergistic effects for improving endothelial function and cardiovascular health” (Natreon, Inc., priority 2014, dated 2019):
# Tested on: endothelial function
# Test: Reflection index (RI), salbutamol challenge test with digital volume plethysmography, type 2 diabetics
# Type: in vivo, human
# Details: DM; 400 mcg
# Experimental: (§1) The present clinical study is a prospective, randomized, double blind, placebo-controlled study. Patients of either sex, aged 30-65 years, fasting plasma glucose of 110-126 mg/dl, a glycosylated hemoglobin (HbA1c) between 6.5% and 8% and taking stable dose of anti-diabetic treatment (metformin 1500-2000 mg/day) for the past 8 weeks prior to the screening visit; and having endothelial dysfunction defined as ≤6% change in reflection index (RI) on post salbutamol challenge test were included in the study. Patients with severe uncontrolled hyperglyceamia, uncontrolled hypertension, cardiac arrhythmia, impaired hepatic or renal function, history of malignancy or stroke, smoking, chronic alcoholism, any other serious disease requiring active treatment and treatment with any other herbal supplements, were excluded from the study.
# (§2) After screening, all the eligible subjects were randomized to receive either one of the three treatments orally for duration of 12 weeks—Group1—one capsule of Crominex®3+, 200 mcg once daily, Group 2—one capsule Crominex®3+, 400 mcg once daily; Group 3—one capsule of placebo once daily.
# (§3) Subjects were required for follow up at 4, 8 and 12 weeks of therapy. At each visit they were evaluated for efficacy and safety. Pharmacodynamic evaluation for endothelial function was conducted at every visit. Blood samples were collected for evaluation of biomarkers before and at the end of treatment. Safety lab investigations for hematological, hepatic and renal biochemical parameters were conducted before and at the end of the study and also as and when required (in case of any adverse drug reaction (ADR). Subjects were enquired for the presence of ADR and the same was recorded in the case report form. Compliance to therapy was assessed by pill count method.
# Procedure for Assessment of Endothelial Function by Determination of Reflection Index (RI).
# A salbutamol (albuterol) challenge test employing digital volume plethysmography was used to assess endothelial function as reported by Chowienczyk et al., “Photoplethysmographic assessment of pulse wave reflection: blunted response to endothelium dependant beta 2-adrenergic vasodilation in type 2 diabetes mellitus,” J. Am. Coll. Cardiol. (1999 December) 34(7):2007-14; and Naidu, et al., “Comparison of two β2 adrenoceptor agonists by different routes of administration to assess human endothelial function,” Indian J. Pharmacol. (2007) 39:168-9. The patients were examined in supine position after 5 minutes of rest. A digital volume pulse (DVP) was obtained using a photo plethysmograph (Pulse Trace PCA2, PT200, Micro Medical, Gallingham, Kent, UK) transmitting infrared light at 940 nm, placed on the index finger of the right hand. The signal from the plethysmograph was digitized using a 12 bit analogue to digital converter with a sampling frequency of 100 Hz. DVP waveforms were recorded over 20 second period and the height of the late systolic/early diastolic portion of the DVP was expressed as a percentage of the amplitude of the DVP to yield the reflection index (RI), per the procedure described in detail by Millasseau et al., “Determination of age related increases in large artery stiffness by digital pulse contour analysis,” Clinical Science (2002) 103: 371-377. Three DVP recordings were taken, and measurements of reflection index (RI) were calculated and the mean value was determined. Patients were then administered 400 μg of salbutamol by inhalation. After 15 minutes three measurements of RI were obtained again and the difference in mean RI before and after administration of salbutamol was used for assessing endothelial function. A change of ≤6% in RI post-salbutamol was considered as endothelial dysfunction.
# The primary efficacy measure was a change in endothelial dysfunction as assessed by more than 6% change in reflection index at 12 weeks. […]
row,Compound,RI [%]
1,"O.O.O.O.O.O.[Cl][Cr]([Cl])[Cl] [Chromium chloride, Chromium chloride (CrCl3.6H2O)]",−0.57
2,chromium dinicocysteinate,−1.03

# Same assay, conditions: type 2 diabetics (Example 3); chromium products 400 mcg; 12 week treatment
row,Compound,Absolute change of RI
1,"O.O.O.O.O.O.[Cl][Cr]([Cl])[Cl] [Chromium chloride, Chromium chloride (CrCl3.6H2O)]",−0.57 + 0.36 #NS %
2,chromium dinicocysteinate,−1.03 + 0.34 #NS %

# Same assay, conditions: type 2 diabetics (Example 3); chromium products 400 mcg; post-treatment, 12 weeks
row,Compound,Reflection index (%) Post Tt [%]
1,"O.O.O.O.O.O.[Cl][Cr]([Cl])[Cl] [Chromium chloride, Chromium chloride (CrCl3.6H2O)]",−3.22 ± 0.85
2,chromium dinicocysteinate,−3.82 ± 0.74

# Same assay, conditions: type 2 diabetics (Example 3); chromium products 400 mcg; pre-treatment
row,Compound,Reflection index (%) Pre Tt
1,"O.O.O.O.O.O.[Cl][Cr]([Cl])[Cl] [Chromium chloride, Chromium chloride (CrCl3.6H2O)]",−3.79 ± 0.82^ %
2,chromium dinicocysteinate,−4.85 ± 0.74^ %

# Tested on: nitric oxide (NO)
# Test: Nitric oxide level, spectrophotometric, type 2 diabetics
# Type: in vivo, human
# Details: DM; 400 mcg
# Experimental: as §1, §2, §3
# (§4) Nitric oxide, MDA, Glutathione and levels were estimated spectrophotometrically as follows. Malondialdehyde (MDA) levels were determined as described in Vidyasagar, et al., “Oxidative stress and antioxidant status in acute organophosphorous insecticide poisoning,” Indian J. Pharmacol. (April 2004) 36(2): 76-79. Glutathione levels were determined as described in G. L. Ellman, Arch. Biochem. Biophys. (1959) 82: 70-77 (original determination). Nitric oxide levels were estimated spectrophotometrically as described in Miranda, et al., “A Rapid, Simple Spectrophotometric Method for Simultaneous Detection of Nitrate and Nitrite,” NITRIC OXIDE: Biology and Chemistry (2001) Vol. 5, No. 1, pp. 62-71. hsCRP (high sensitivity C-reactive protein) was determined by ELISA method.
# (§5) When the results with Crominex® 3+ in the above two examples were highly significant, especially with the 400 mcg once daily dose in type 2 diabetics, two more clinical studies (EXAMPLES 3 & 4) were conducted at the same institute, following the same methodology as described earlier, on the individual components of Crominex® 3+, i.e., chromium chloride and Phyllanthus emblica+Shilajit, and other chromium supplements available in the market, i.e., chromium picolinate, chromium polynicotinate and chromium dinicocysteinate, in type 2 diabetics as well as in subjects with metabolic syndrome symptoms.
row,Compound,NO [%]
1,"O.O.O.O.O.O.[Cl][Cr]([Cl])[Cl] [Chromium chloride, Chromium chloride (CrCl3.6H2O)]",6.98
2,chromium dinicocysteinate,7.08

# Same assay, conditions: type 2 diabetics (Example 3); chromium products 400 mcg; 12 week treatment
row,Compound,Mean percentage change in NO
1,"O.O.O.O.O.O.[Cl][Cr]([Cl])[Cl] [Chromium chloride, Chromium chloride (CrCl3.6H2O)]",6.98 ± 10.15@NS %
2,chromium dinicocysteinate,7.08 ± 2.40@NS %

# Same assay, conditions: type 2 diabetics (Example 3); chromium products 400 mcg; post-treatment, 12 weeks
row,Compound,NO Post Tt [μM/L]
1,"O.O.O.O.O.O.[Cl][Cr]([Cl])[Cl] [Chromium chloride, Chromium chloride (CrCl3.6H2O)]",29.60 ± 2.65
2,chromium dinicocysteinate,30.91 ± 2.87

# Same assay, conditions: type 2 diabetics (Example 3); chromium products 400 mcg; pre-treatment
row,Compound,NO Pre Tt [μM/L]
1,"O.O.O.O.O.O.[Cl][Cr]([Cl])[Cl] [Chromium chloride, Chromium chloride (CrCl3.6H2O)]",27.74 ± 2.01
2,chromium dinicocysteinate,28.88 ± 2.72

# Tested on: glutathione (GSH)
# Test: Glutathione level, spectrophotometric, type 2 diabetics
# Type: in vivo, human
# Details: DM; 400 mcg
# Experimental: as §1, §2, §3, §4, §5
row,Compound,GSH [%]
1,"O.O.O.O.O.O.[Cl][Cr]([Cl])[Cl] [Chromium chloride, Chromium chloride (CrCl3.6H2O)]",4.22
2,chromium dinicocysteinate,5.77

# Same assay, conditions: type 2 diabetics (Example 3); chromium products 400 mcg; 12 week treatment
row,Compound,Mean percentage change in GSH
1,"O.O.O.O.O.O.[Cl][Cr]([Cl])[Cl] [Chromium chloride, Chromium chloride (CrCl3.6H2O)]",4.22 ± 0.64 #$NS %
2,chromium dinicocysteinate,5.77 ± 1.47 #$NS %

# Same assay, conditions: type 2 diabetics (Example 3); chromium products 400 mcg; post-treatment, 12 weeks
row,Compound,GSH Post Tt [μM/L]
1,"O.O.O.O.O.O.[Cl][Cr]([Cl])[Cl] [Chromium chloride, Chromium chloride (CrCl3.6H2O)]",527.08 ± 16.98
2,chromium dinicocysteinate,563.66 ± 11.04

# Same assay, conditions: type 2 diabetics (Example 3); chromium products 400 mcg; pre-treatment
row,Compound,GSH Pre Tt [μM/L]
1,"O.O.O.O.O.O.[Cl][Cr]([Cl])[Cl] [Chromium chloride, Chromium chloride (CrCl3.6H2O)]",505.73 ± 16.66
2,chromium dinicocysteinate,532.95 ± 10.63

# Tested on: fasting plasma glucose
# Test: Fasting plasma glucose, type 2 diabetics
# Type: in vivo, human
# Details: DM; 400 mcg
# Experimental: as §5
row,Compound,Fasting Glucose [%]
1,"O.O.O.O.O.O.[Cl][Cr]([Cl])[Cl] [Chromium chloride, Chromium chloride (CrCl3.6H2O)]",0.87
2,chromium dinicocysteinate,−3.2

# Same assay, conditions: type 2 diabetics (Example 3); chromium products 400 mcg; post-treatment, 12 weeks
row,Compound,Fasting Plasma Glucose Post Tt
1,"O.O.O.O.O.O.[Cl][Cr]([Cl])[Cl] [Chromium chloride, Chromium chloride (CrCl3.6H2O)]",134.21 ± 9.32 NS mg/dL
2,chromium dinicocysteinate,132.3 ± 4.41 $ mg/dL

# Same assay, conditions: type 2 diabetics (Example 3); chromium products 400 mcg; pre-treatment
row,Compound,Fasting Plasma Glucose Pre Tt
1,"O.O.O.O.O.O.[Cl][Cr]([Cl])[Cl] [Chromium chloride, Chromium chloride (CrCl3.6H2O)]",133.05 ± 7.95 mg/dL
2,chromium dinicocysteinate,136.8 ± 6.99^ mg/dL

# Tested on: malondialdehyde (MDA)
# Test: Malondialdehyde level, metabolic syndrome subjects
# Type: in vivo, human
# Details: MS; 400 mcg
# Experimental: as §4
# (§6) Patients included in the study, were of either gender, aged 30-68 years, having endothelial dysfunction defined as ≤6% change in reflection index (RI) on post salbutamol challenge test and central obesity as defined by The International Diabetes Federation guidelines, dated 2006, and any two of the following conditions:
# (§7) After screening, all the eligible subjects were randomized to receive either one of the three treatments orally for duration of 12 weeks: group 1—one capsule of Crominex®3+ 200 mcg once daily; group 2—one capsule 400 mcg once daily; group 3—one capsule of Placebo once daily.
# (§8) Subjects were reviewed for follow up at 4 weeks, 8 and 12 weeks of therapy. At each visit they were evaluated for efficacy and safety. Pharmacodynamic evaluation for endothelial function was conducted at baseline and end of treatment. Blood samples were collected for evaluation of biomarkers before and at end of treatment. Safety lab investigations for hematological, hepatic and renal biochemical parameters were conducted before and at the end of the study and also as and when required (in case of any adverse drug reaction (ADR)). Subjects were enquired for the presence of ADR and the same was recorded in the case report form. Compliance to therapy was assessed by pill count method.
# Assessment of endothelial function, biomarkers, safety parameters and primary and secondary efficacy parameters and data analysis were performed as described under the study with type 2 diabetic subjects in Example 1.
# as §5
row,Compound,MDA [%]
1,"O.O.O.O.O.O.[Cl][Cr]([Cl])[Cl] [Chromium chloride, Chromium chloride (CrCl3.6H2O)]",−4.65
2,chromium dinicocysteinate,−6.7

# Same assay, conditions: metabolic syndrome subjects (Example 4); chromium products 400 mcg; after 12 weeks of treatment
row,Compound,MDA Post Tt [nM/ml]
1,"O.O.O.O.O.O.[Cl][Cr]([Cl])[Cl] [Chromium chloride, Chromium chloride (CrCl3.6H2O)]",3.76 ± 0.42
2,chromium dinicocysteinate,3.74 ± 0.42

# Same assay, conditions: metabolic syndrome subjects (Example 4); chromium products 400 mcg; after 12 weeks treatment
row,Compound,Mean percentage change in MDA [%]
1,"O.O.O.O.O.O.[Cl][Cr]([Cl])[Cl] [Chromium chloride, Chromium chloride (CrCl3.6H2O)]",−4.65 ± 1.95
2,chromium dinicocysteinate,−6.67 ± 1.47

# Same assay, conditions: metabolic syndrome subjects (Example 4); chromium products 400 mcg; pre-treatment
row,Compound,MDA Pre Tt [nM/ml]
1,"O.O.O.O.O.O.[Cl][Cr]([Cl])[Cl] [Chromium chloride, Chromium chloride (CrCl3.6H2O)]",3.94 ± 0.42
2,chromium dinicocysteinate,4.00 ± 0.42

# Tested on: not listed separately
# Test: Blood pressure, metabolic syndrome subjects
# Type: in vivo, human
# Details: metabolic syndrome subjects (Example 4); chromium products 400 mcg; after 12 weeks of treatment
# Excerpt: as §6, §7, §8, §5
Compound,Diastolic blood pressure Post Tt [NS mmHg],Systolic blood pressure Post Tt [NS mmHg]
"O.O.O.O.O.O.[Cl][Cr]([Cl])[Cl] [Chromium chloride, Chromium chloride (CrCl3.6H2O)]",79.8 ± 2.66,122.9 ± 3.42
chromium dinicocysteinate,78.8 ± 2.67,122.0 ± 2.66

# Same assay, conditions: metabolic syndrome subjects (Example 4); chromium products 400 mcg; pre-treatment
Compound,Diastolic blood pressure Pre Tt [mmHg],Systolic blood pressure Pre Tt [mmHg]
"O.O.O.O.O.O.[Cl][Cr]([Cl])[Cl] [Chromium chloride, Chromium chloride (CrCl3.6H2O)]",80.6 ± 2.67,124.7 ± 3.35
chromium dinicocysteinate,80.0 ± 2.99,124.8 ± 3.37
